# Source: US11324798B2, “Materials and methods for treatment of inflammation” (CYTOGEL PHARMA, LLC, priority 2010, dated 2022)
# Values joined by “and” are separate entries in the source; they are usually repeats but may differ in a detail not shown here. Equal values may be shown once.
# Experiments:
# [1] = system: SP release from isolated rat tracheae; assay: Electrical field stimulation (EFS)-evoked release of SP from isolated rat tracheae, radioimmunoassay; type: cell-based; settings: for SP Release into the incubation medium / Absolute release of SP: individual experiments 1-5; for SP Release into the incubation medium, Mean / Absolute release of SP, Mean: mean of 5 experiments
# Protocol: For the in vitro release experiments, a 10 mg/ml (14.62 mM; MW 684) stock solution of CYT-1010 was made in DMSO, which was further diluted with the oxygenated Krebs solution used in the organ bath: 5.5 μl of this CYT-1010 stock solution was added into 40 ml Krebs to make the highest applied 2 μM concentration of compound CYT-1010. Further dilutions to obtain the lower concentrations were prepared with Krebs solution.
# The incubation media containing the respective CYT-1010 concentrations were administered in the stimulated and post-stimulated 8-min fractions.
# Since even the highest, 2 μM, concentration of CYT-1010 solution contained negligible amount of DMSO, simple Krebs solution was used in the control experiments.
# Rats were exsanguinated in deep anaesthesia (sodium thiobarbital, 50 mg/kg i.p.), then the whole trachea was removed and cleaned of fat and adhering connective tissues. Tracheae from two rats were placed into the same 1.8 ml organ bath to obtain sufficient amount of released peptide and perfused (1 ml/min) with pH-(7.2) controlled oxygenized Krebs solution for 60 minutes (equilibration period) at 37° C. temperature. After discontinuation of the flow, the solution was changed three times for eight minutes to produce pre-stimulated, stimulated, post-stimulated fractions.
# Electrical field stimulation (40 V, 0.1 ms, 10 Hz for 120 s; 1200 pulses) was performed to elicit neurotransmitter release at the beginning of the second 8-minute period. Stimulation with 0.1 ms pulse width selectively activates very fast Na^+ channels, which are only present in the membrane of neural structures (Birmingham and Wilson, 1963; Coburn and Tomita 1973; Szolcsányi and Barthó, 1982); therefore, it excites nerve endings without influencing other excitable cells in the tracheae such as smooth muscle cells.
# Krebs solution was used in the pre-stimulated fraction for determining the basal CGRP outflow. During the stimulated and post-stimulated fractions, the incubation medium contained the examined concentrations of CYT-1010 (10, 100, 500, 1000 and 2000 nM) in separate experiments, and only one concentration was applied to the same tracheae to avoid neuropeptide depletion. In each group, 5 experiments were performed in parallel in 5 perfusion systems to provide n=5 data per group (10 tracheae per group).
# 60 male Wistar rats (250-300 g) altogether were divided into 6 experimental groups: Group 1: controls (n=10); Group 2: 10 nM CYT-1010 (n=10); Group 3: 100 nM CYT-1010 (n=10); Group 4: 500 nM CYT-1010 (n=10); Group 5: 1000 nM CYT-1010 (n=10); and Group 6: 2000 nM CYT-1010 (n=10). The total study was performed on three experimental days, two groups every occasion.
# Calcitonin gene-related peptide (CGRP) and substance P (SP) concentrations were determined from 400-400 μl samples of organ fluid of the preparations by means of radioimmunoassay methods described in Nemeth et al., 1996, 1998, 1999, 2006; Helyes et al., 1997, 2001, 2006; Borzsei et al., 2008). Each of these publications is incorporated herein by reference in its entirety.
# The released amount of the peptides CGRP and SP was calculated as fmol peptide per mg wet tissue (trachea). The absolute release in response to EFS in each experiment was calculated by adding peptide release in the second and third 8-min fractions and then taking off the basal release measured in the first (pre-stimulated) fraction. The detection limits of the RIA assays were 0.2 fmol/tube and 2 fmol/tube for CGRP and SP, respectively.
# [2] = Survival of anaesthetised mice after i.v. CYT-1010 injection; type: in vivo
# Protocol: In the first series of the in vivo experiments of mice, ketamine (100 mg/kg, i.p.) and xylazine (10 mg/kg, i.m.) were used for anesthesia according to the conventional protocol.
# [3] = Appearance of CYT-1010 preparations in 20% HPCD; type: physicochemical
# Protocol: For the in vivo rat and mouse experiments, 5.5 ml of the 1 mg/ml stock solution of CYT-1010 was prepared freshly every experimental day with 20% HPCD dissolved in sterile distilled water. […] The vehicle was 20% HPCD dissolved in sterile distilled water. Further dilutions of the compound for the smaller administered doses were made with this vehicle, the 500 μg/ml and 100 μg/ml concentrations looked opalescent and the lower concentrations were clear. In rats 0.1 ml/100 g, in mice 0.1 ml/10 g volumes were administered i.v. 10 min before the induction of the inflammation.
# Stock solution of the 100 μg/ml concentration of CYT-1010 (5.5 ml) was prepared fresh every experimental day with 20% hydroxypropyl-βcyclodextrin (HPCD) dissolved in sterile distilled water, shaken properly and sonicated. The vehicle was 20% HPCD dissolved in sterile distilled water. Further dilutions of the compound for the smaller administered doses were made with this vehicle. The applied concentrations were filtered through a 0.2 μm sterile teflon filter. […] The lower concentrations looked clear immediately. Non-filtered solutions were administered in the same concentrations in the parallel groups for comparison. Three doses of both the filtered and non-filtered CYT-1010 solutions (1, 10 and 100 μg/kg; 0.1 ml/10 g from the 0.1, 1 and 10 μg/ml solutions) were administered i.v. 5 min before the induction of the inflammation. Animals of the control group were treated with the same volume of the HPCD after or without the same filtration procedure.
compound,measurement,setting,value
"NC(Cc1ccc(O)cc1)C(=O)NC1CCCCNC(=O)C(Cc2ccccc2)NC(=O)C(Cc2c[nH]c3ccccc23)NC1=O [CYT-1010, H-Tyr-c-[D-Lys-Trp-Phe]]",Inhibition of EFS-evoked SP outflow,"[1]; 500 nM, 0.5 µM",64.3% and 64%
same,Inhibition of EFS-evoked SP outflow,"[1]; 1000 nM (maximal inhibition), 1 µM",71.8% and 72%
same,"SP release, % increase above baseline","[1]; 1 microM, after stimulation",16.32%
same,SP Release into the incubation medium,"[1]; 1 microM, after stimulation (post-stimulated fraction)",1.663 fmol/mg wet tissue and 1.966 fmol/mg wet tissue and 1.892 fmol/mg wet tissue and 1.551 fmol/mg wet tissue and 1.397 fmol/mg wet tissue
same,"SP Release into the incubation medium, Mean","[1]; 1 microM, after stimulation",1.694 fmol/mg wet tissue
same,"SP release, % increase above baseline","[1]; 1 microM, before stimulation",0.00%
same,SP Release into the incubation medium,"[1]; 1 microM, before stimulation (pre-stimulated fraction)",1.398 fmol/mg wet tissue and 1.806 fmol/mg wet tissue and 1.860 fmol/mg wet tissue and 1.412 fmol/mg wet tissue and 0.805 fmol/mg wet tissue
same,"SP Release into the incubation medium, Mean","[1]; 1 microM, before stimulation",1.456 fmol/mg wet tissue
same,"SP release, % increase above baseline","[1]; 1 microM, during stimulation",13.32%
same,SP Release into the incubation medium,"[1]; 1 microM, during stimulation (stimulated fraction)",1.558 fmol/mg wet tissue and 1.948 fmol/mg wet tissue and 1.992 fmol/mg wet tissue and 1.422 fmol/mg wet tissue and 1.331 fmol/mg wet tissue
same,"SP Release into the incubation medium, Mean","[1]; 1 microM, during stimulation",1.650 fmol/mg wet tissue
same,Absolute release of SP,[1]; 1 microM,0.425 fmol/mg wet tissue and 0.302 fmol/mg wet tissue and 0.164 fmol/mg wet tissue and 0.149 fmol/mg wet tissue and 1.118 fmol/mg wet tissue
same,"Absolute release of SP, Mean",[1]; 1 microM,0.432 fmol/mg wet tissue
same,"SP release, % increase above baseline","[1]; 2 microM, after stimulation",6.72%
same,SP Release into the incubation medium,"[1]; 2 microM, after stimulation (post-stimulated fraction)",2.348 fmol/mg wet tissue and 1.531 fmol/mg wet tissue and 2.246 fmol/mg wet tissue and 1.543 fmol/mg wet tissue and 1.944 fmol/mg wet tissue
same,"SP Release into the incubation medium, Mean","[1]; 2 microM, after stimulation",1.922 fmol/mg wet tissue
same,"SP release, % increase above baseline","[1]; 2 microM, before stimulation",0.00%
same,SP Release into the incubation medium,"[1]; 2 microM, before stimulation (pre-stimulated fraction)",2.406 fmol/mg wet tissue and 1.582 fmol/mg wet tissue and 2.020 fmol/mg wet tissue and 1.132 fmol/mg wet tissue and 1.867 fmol/mg wet tissue
same,"SP Release into the incubation medium, Mean","[1]; 2 microM, before stimulation",1.801 fmol/mg wet tissue
same,"SP release, % increase above baseline","[1]; 2 microM, during stimulation",56.23%
same,SP Release into the incubation medium,"[1]; 2 microM, during stimulation (stimulated fraction)",3.130 fmol/mg wet tissue and 2.398 fmol/mg wet tissue and 2.334 fmol/mg wet tissue and 2.078 fmol/mg wet tissue and 4.132 fmol/mg wet tissue
same,"SP Release into the incubation medium, Mean","[1]; 2 microM, during stimulation",2.814 fmol/mg wet tissue
same,Absolute release of SP,[1]; 2 microM,0.666 fmol/mg wet tissue and 0.765 fmol/mg wet tissue and 0.540 fmol/mg wet tissue and 1.357 fmol/mg wet tissue and 2.342 fmol/mg wet tissue
same,"Absolute release of SP, Mean",[1]; 2 microM,1.134 fmol/mg wet tissue
same,Effect on stimulation-evoked SP release,[1]; 10-2000 nM added to the second and third fractions,significantly inhibited
same,EC50,"[1]; sigmoidal concentration-response curve, non-linear least square fit, 10-2000 nM, read-out: EC50 for inhibition of electrically-evoked SP release",34 nM
same,Mortality after i.v. injection,"[2]; mice under ketamine (100 mg/kg, i.p.) and xylazine (10 mg/kg, i.m.) anesthesia, presumably respiratory depression",all the 10 mice died promptly
same,Time to death after i.v. injection,[2]; mice under ketamine/xylazine anesthesia,≤ 5 min
same,Survival after i.v. injection,"[2]; mice under urethane (1.2 g/kg i.p.) anaesthesia, one death in the 1 μg/kg dose group",all mice survived except one
same,Appearance of preparation,"[3]; 100 μg/ml in 20% HPCD, directly after preparation (Example 4)",opalescent
same,Appearance of preparation,"[3]; 100 μg/ml in 20% HPCD, on standing at 4° C. (Example 4)",cleared up 1 hour later
same,Appearance of preparation,[3]; 500 μg/ml and 100 μg/ml in 20% HPCD,opalescent
same,Appearance of preparation,[3]; 1 mg/ml stock in 20% HPCD in sterile distilled water,milky white micro-suspension
same,Appearance of preparation,[3]; lower concentrations (below 100 μg/ml) in 20% HPCD,clear
